{
  "source": "patent US11466025B2",
  "about": "“Thienopyridine derivatives containing unsaturated aliphatic olefinic bond, preparation method and use thereof” (Tianjin Institute of Pharmaceutical Research Co., Ltd., priority 2017, dated 2022)",
  "key": {"[1]": {"test_system": "beagle dogs", "experiment": "Safety evaluation in single dosing", "type": "in vivo", "conditions": "intragastric single dose of 2 g/kg; for Activities, mental condition and diet: administration and observation period", "protocol": "Safety Evaluation of Compounds I-1 and I-2 in Single Dosing: The test consisted of a physiological control group, a solvent control group, and two administration groups, with 4 animals in each group, half of which were male and the other half of which were female. The animals were intragastrically administered with the test compounds at a single dose of 2 g/kg. The solvent control group was administered with an equal volume of the blank solvent. Animals were daily observed for various conditions during the test. ECG examinations were performed before administration, 1 h after administration, and 7 and 14 days after administration. Hematological and blood biochemical tests were performed before administration and 1, 7 and 12 days after administration."}, "[2]": {"experiment": "Stability of crystalline form A of I-1 (X-ray powder diffraction after high temperature, high humidity, light)", "type": "physicochemical"}, "[3]": {"test_system": "bleeding time of amputated tail in rats", "experiment": "Test of hemorrhagic side effects: bleeding time of amputated tail in rats", "type": "in vivo, SD rats", "conditions": "intragastric, tail cut 1 h after administration, linear equation fitted", "protocol": "Test of Hemorrhagic Side Effects:\n1 h after administration, the rats were anesthetized by intraperitoneal injection of 20% urethane (1 g/kg), and the tail was cut off 5 mm from the tip of the tail, which was then placed in a test tube containing 5 ml normal saline at 37° C. The time from tail cut to cease of bleeding was recorded as the bleeding time. The increasing rate of bleeding time in each dose group was calculated, with the bleeding time of the rats in the control group being 100%."}, "[4]": {"experiment": "Light-avoidance stability test after being packaged with aluminum foil (HPLC)", "type": "physicochemical", "protocol": "The stability of the compound is investigated under the conditions of high temperature, high humidity and light. The testing conditions for high performance liquid chromatography (HPLC) are as follows: Samples relating to Compound I-2 were tested using Method 2 and other samples were tested using Method 1. The test results of the influence factors are shown in Table 14, and the test results of the light-avoidance stability test are shown in Table 15."}, "[5]": {"test_system": "arteriovenous bypass thrombosis in rats", "experiment": "Test of effect of compounds on arteriovenous bypass thrombosis in rats", "type": "in vivo, SD rats", "design": "Dry weight of thrombus (%): unit not given here", "conditions": "for ED50: Rattus norvegicus, po; for Inhibition rate (%): dry weight of thrombus; for Dry weight of thrombus (%): loop opened 2.5 h after administration, 15 min", "protocol": "Test of Effect of Compounds on Arteriovenous Bypass Thrombosis in Rats\nMale SD rats were randomly divided into solvent control group, positive drug control group and test compound group. The solvent control group was administered a corresponding volume of the solvent. […] Rats were anesthetized with 4% chloral hydrate (0.32 g/kg), and fixed on the operating table at the supine position. The right common carotid artery and the left external jugular vein were separated, and was each inserted with a Teflon tube filled with normal saline solution containing heparin (50 U/mL), which were connected through another Teflon tube. A 6 cm long cotton thread was placed at the joints of the two tubes. After 2.5 h of administration, the arteriovenous loop was opened in each group and circulated for 15 min. The blood flow was interrupted, and the cotton thread wrapped with the thrombus was quickly removed and weighed. The weight of the cotton thread was subtracted to obtain the wet weight of the thrombus, and then it was baked in the oven to constant weight and weighed. The weight of the cotton thread was subtracted to obtain the dry weight of the thrombus."}, "[6]": {"conditions": "5 days, Light (aluminum foil) 4500 ± 500 LX"}, "[7]": {"conditions": "10 days, Light (aluminum foil) 4500 ± 500 LX"}, "[8]": {"conditions": "30 days, Light (aluminum foil) 4500 ± 500 LX"}},
  "note": "Where two headings read alike, the source gives them in different places.",
  "data": [
    {"smiles": "C/C=C/C(=O)Oc1cc2c(s1)CCN([C@H](C(=O)OC)c1ccccc1Cl)C2", "note": "[Compound I-1, Methyl (S,E)-2-(2-chlorophenyl)-2-(2-(2-butenoyloxy)-6,7-dihydrothieno[3,2-c]pyridin-5(4H)-yl)-acetate]", "values": [
      {"measurement": "ECG examinations, hematological tests and serum biochemical tests", "setting": "[1]", "result": "no obvious abnormalities"},
      {"measurement": "Activities, mental condition and diet", "setting": "[1]", "result": "normal activities, good mental condition, and normal diet"},
      {"measurement": "Crystalline form", "setting": "[2]; crystalline form A of I-1, 0 day", "result": "Crystalline form A"},
      {"measurement": "Crystalline form", "setting": "[2]; crystalline form A of I-1, 5 days, High humidity (RH 92.5%)", "result": "Crystalline form A"},
      {"measurement": "Crystalline form", "setting": "[2]; crystalline form A of I-1, 5 days, High temperature (60° C.)", "result": "Crystalline form A"},
      {"measurement": "Crystalline form", "setting": "[2]; crystalline form A of I-1, 5 days, Light (5000 ± 5000 Lx)", "result": "Crystalline form A"},
      {"measurement": "Crystalline form", "setting": "[2]; crystalline form A of I-1, 10 days, High humidity (RH 92.5%)", "result": "Crystalline form A"},
      {"measurement": "Crystalline form", "setting": "[2]; crystalline form A of I-1, 10 days, High temperature (60° C.)", "result": "Crystalline form A"},
      {"measurement": "Crystalline form", "setting": "[2]; crystalline form A of I-1, 10 days, Light (5000 ± 500 Lx)", "result": "Crystalline form A"},
      {"measurement": "Crystalline form", "setting": "[2]; crystalline form A of I-1, 30 days, High humidity (RH 92.5%)", "result": "Crystalline form A"},
      {"measurement": "Crystalline form", "setting": "[2]; crystalline form A of I-1, 30 days, High temperature (60° C.)", "result": "Crystalline form A"},
      {"measurement": "Crystalline form", "setting": "[2]; crystalline form A of I-1, 30 days, Light (5000 ± 500 Lx)", "result": "Crystalline form A"},
      {"measurement": "Change of the crystalline form by X-ray powder diffraction", "setting": "[2]; crystalline form A of I-1, high temperature, high humidity and light for 5, 10 and 30 days", "result": "has not changed"},
      {"measurement": "ED200 (dose that doubled the bleeding time)", "setting": "[3]", "result": 1.977, "unit": "mg/kg"},
      {"measurement": "Chromatographic purity %", "setting": "[4]; 0 day, 0point", "result": 99.612, "unit": "%"},
      {"measurement": "Individual maximum impurity %", "setting": "[4]; 0 day, 0point", "result": 0.236, "unit": "%"},
      {"measurement": "Chromatographic purity %", "setting": "[4]; [6]", "result": 99.598, "unit": "%"},
      {"measurement": "Individual maximum impurity %", "setting": "[4]; [6]", "result": 0.242, "unit": "%"},
      {"measurement": "Chromatographic purity %", "setting": "[4]; [7]", "result": 99.565, "unit": "%"},
      {"measurement": "Individual maximum impurity %", "setting": "[4]; [7]", "result": 0.243, "unit": "%"},
      {"measurement": "Chromatographic purity %", "setting": "[4]; [8]", "result": 99.555, "unit": "%"},
      {"measurement": "Individual maximum impurity %", "setting": "[4]; [8]", "result": 0.242, "unit": "%"},
      {"measurement": "ED50", "setting": "[5]", "result": 7.89, "unit": "mg/kg"},
      {"measurement": "Inhibition rate (%)", "setting": "[5]; rats, intragastric 1 mg/kg", "result": 18.3, "unit": "%"},
      {"measurement": "Inhibition rate (%)", "setting": "[5]; rats, intragastric 3 mg/kg", "result": 43.2, "unit": "%"},
      {"measurement": "Inhibition rate (%)", "setting": "[5]; rats, intragastric 10 mg/kg", "result": 56.0, "unit": "%"},
      {"measurement": "Inhibition rate (%)", "setting": "[5]; rats, intragastric 30 mg/kg", "result": 64.2, "unit": "%"},
      {"measurement": "Dry weight of thrombus (%)", "setting": "[5]; rats, intragastric 1 mg/kg", "result": "8.3 ± 2.7"},
      {"measurement": "Dry weight of thrombus (%)", "setting": "[5]; rats, intragastric 3 mg/kg", "result": "5.8 ± 1.4"},
      {"measurement": "Dry weight of thrombus (%)", "setting": "[5]; rats, intragastric 10 mg/kg", "result": "4.5 ± 2.4"},
      {"measurement": "Dry weight of thrombus (%)", "setting": "[5]; rats, intragastric 30 mg/kg", "result": "3.6 ± 0.5"}
    ]},
    {"smiles": "C/C=C/C=C/C(=O)Oc1cc2c(s1)CCN([C@H](C(=O)OC)c1ccccc1Cl)C2", "note": "[Compound I-2, Methyl (S)-2-(2-chlorophenyl)-2-(2-((2E,4E)-2,4-hexadienoyloxy)-6,7-dihydrothieno[3,2-c]pyridin-5(4H)-yl)-acetate]", "values": [
      {"measurement": "ECG examinations, hematological tests and serum biochemical tests", "setting": "[1]", "result": "no obvious abnormalities"},
      {"measurement": "Activities, mental condition and diet", "setting": "[1]", "result": "normal activities, good mental condition, and normal diet"},
      {"measurement": "Chromatographic purity %", "setting": "[4]; 0 day, 0point", "result": 98.879, "unit": "%"},
      {"measurement": "Individual maximum impurity %", "setting": "[4]; 0 day, 0point", "result": 0.705, "unit": "%"},
      {"measurement": "Chromatographic purity %", "setting": "[4]; [6]", "result": 98.348, "unit": "%"},
      {"measurement": "Individual maximum impurity %", "setting": "[4]; [6]", "result": 0.699, "unit": "%"},
      {"measurement": "Chromatographic purity %", "setting": "[4]; [7]", "result": 98.544, "unit": "%"},
      {"measurement": "Individual maximum impurity %", "setting": "[4]; [7]", "result": 0.699, "unit": "%"},
      {"measurement": "Chromatographic purity %", "setting": "[4]; [8]", "result": 98.434, "unit": "%"},
      {"measurement": "Individual maximum impurity %", "setting": "[4]; [8]", "result": 0.696, "unit": "%"},
      {"measurement": "ED50", "setting": "[5]; dry weight of thrombus from arteriovenous bypass, rats, intragastric, read-out: ED50", "result": 5.86, "unit": "mg/kg"},
      {"measurement": "Inhibition rate (%)", "setting": "[5]; rats, intragastric 1 mg/kg", "result": 36.5, "unit": "%"},
      {"measurement": "Inhibition rate (%)", "setting": "[5]; rats, intragastric 3 mg/kg", "result": 40.3, "unit": "%"},
      {"measurement": "Inhibition rate (%)", "setting": "[5]; rats, intragastric 10 mg/kg", "result": 52.1, "unit": "%"},
      {"measurement": "Inhibition rate (%)", "setting": "[5]; rats, intragastric 30 mg/kg", "result": 68.6, "unit": "%"},
      {"measurement": "Dry weight of thrombus (%)", "setting": "[5]; rats, intragastric 1 mg/kg", "result": "6.4 ± 3.6"},
      {"measurement": "Dry weight of thrombus (%)", "setting": "[5]; rats, intragastric 3 mg/kg", "result": "6.1 ± 2.9"},
      {"measurement": "Dry weight of thrombus (%)", "setting": "[5]; rats, intragastric 10 mg/kg", "result": "4.9 ± 2.3"},
      {"measurement": "Dry weight of thrombus (%)", "setting": "[5]; rats, intragastric 30 mg/kg", "result": "3.2 ± 1.5"}
    ]}
  ]
}
